Assay results from patent publication US6300337A, “Acetamide derivative and use thereof” (Nippon Kayaku Kabushiki Kaisha, priority 1998, dated 2001).

Molecular target: T1, human chymase (Homo sapiens, UniProt P23946)
T1 construct: 60 g human tonsillar gland was finely divided by scissors and a scalpel; from tissue; host or cells: human tonsillar gland
T1 sequence (P23946 22-247): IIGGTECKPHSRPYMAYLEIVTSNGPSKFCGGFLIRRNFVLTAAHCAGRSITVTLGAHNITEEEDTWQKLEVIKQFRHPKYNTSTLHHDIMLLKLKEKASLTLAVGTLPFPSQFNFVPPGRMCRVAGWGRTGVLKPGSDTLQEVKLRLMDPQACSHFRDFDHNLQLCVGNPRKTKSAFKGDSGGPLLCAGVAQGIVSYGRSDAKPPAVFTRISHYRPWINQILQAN
Test: inhibitory activity on human chymase (angiotensin I as substrate, angiotensin II determined by HPLC)
Format: biochemical
Conditions: for inhibitory activity on chymase (in words): chymase species not given; for IC50: first table, pH 8.0, 37° C., 15 min, read-out: 50% Inhibitory concentration (IC50) human chymase
Text: It is known that chymase is present in tissues of various animals, and its isolation and purification methods are described in Anal. Biochem., 137, 449 (1984) and FEBS Letters, 323, 119 (1993). In the present invention, chymase was purified by the methods described in these literatures, and the present compounds were examined for inhibitory activity on human chymase or dog chymase. The specific methods are as follows:
60 g human tonsillar gland was finely divided by scissors and a scalpel, suspended in 0.1 M phosphate buffer (pH 8.0), and disrupted by a Polytron homogenizer for 5 minutes to prepare a crude chymase enzyme solution. The solution was centrifuged at 22000×g for 30 min, and the precipitate was used as a chymase enzyme fraction. The precipitate was washed by repeating the above procedure twice, and then suspended in 0.1 M phosphate buffer (pH 8.0) containing 2 M sodium chloride and 5% ammonium sulfate. The suspension was centrifuged at 27000×g for 20 min to give a supernatant as a chymase fraction. The supernatant was concentrated by ultrafiltration, applied to a G2000SW-XL column (6.0×300 mm), and eluted with 0.1 M phosphate buffer (pH 8.0). An active fraction decomposing succinyl leucyl leucyl valyl tyrosyl methylcoumarylamide (hereinafter referred to as the synthetic chymase substrate, made by Peptide Kenkyusho) was recovered, concentrated and used as a purified human chymase for the following activity measurement.
The inhibitory activity on the human chymase and dog chymase was measured using angiotensin I (made by Peptide Kenkyusho) for a substrate. 200 μl of 0.15 M Tris-HCl buffer (pH 8.0) containing 0.1 mM angiotensin I, 0.0002 μl of human or dog chymase solution and 2 μl of a dimethylsulfoxide solution of the present compound were added into a 1.5 ml test tube and incubated at 37° C. for 15 min. At the end of the reaction, produced angiotensin II was immediately determined by high performance liquid chromatography […] the chymase activity to calculate 50% inhibitory concentration (IC50: nM).
The test was conducted several times. Chymase was prepared for each test in the manner described above. The compounds prepared in the above-described Examples were used for the test.

| Compound | inhibitory activity on chymase (in words) | IC50 |
| --- | --- | --- |
| CC(=O)OCc1cnc(-c2ccccc2)n(CC(=O)NC(Cc2ccccc2)C(=O)C(=O)CCCOc2ccccn2)c1=O (stereo not shown) [Compound 1, 2-(5-acetyloxymethyl-4-oxo-2-phenyl-3,4-dihydro-pyrimidin-3-yl)-N-{2,3-dioxo-1-phenylmethyl-6-(2-pyridyloxy)}hexylacetamide] | powerful inhibitory activity on chymase | 26 nM |
| O=C(Cn1c(-c2ccccc2)ncc(CO)c1=O)NC(Cc1ccccc1)C(=O)C(=O)CCCOc1ccccn1 (stereo not shown) [Compound 2, 2-(5-hydroxymethyl-4-oxo-2-phenyl-3,4-dihydropyrimidin-3-yl)-N-{2,3-dioxo-1-phenylmethyl-6-(2-pyridyloxy)} hexylacetamide] | powerful inhibitory activity on chymase | 27 nM |
| COCc1cnc(-c2ccccc2)n(CC(=O)NC(Cc2ccccc2)C(=O)C(=O)CCCOc2ccccn2)c1=O (stereo not shown) [Compound 3, 2-(5-methoxymethyl-4-oxo-2-phenyl-3,4-dihydropyrimidin-3-yl)-N-{2,3-dioxo-1-phenylmethyl-6-(2-pyridyloxy)} hexylacetamide] | powerful inhibitory activity on chymase | 22 nM |
| CCOC(=O)c1cnc(-c2ccccc2)n(CC(=O)NC(Cc2ccccc2)C(=O)C(=O)CCCOc2ccccn2)c1=O (stereo not shown) [Compound 4, 2-(5-ethoxycarbonyl-4-oxo-2-phenyl-3,4-dihydro-pyrimidin-3-yl)-N-{2,3-dioxo-1-phenylmethyl-6-(2-pyridyl-oxy)}hexylacetamide] | – | 490 nM |
